Measured values from ChEMBL document CHEMBL5038604, “5α-Epoxyalantolactone Inhibits Metastasis of Triple-Negative Breast Cancer Cells by Covalently Binding a Conserved Cysteine of Annexin A2” (J Med Chem, 2021).
Activity calls are given as the source filed them. No cut-off for these calls is given here.

Key:
4T1 [1] = assay: Antiproliferative activity against mouse 4T1 cells assessed as reduction in cell viability after 48 hrs by MTT assay; assay type: functional, cell-based; conditions: 4T1, 48 h
[2] = target: T1, Annexin A2/S100-A10 (Homo sapiens) (UniProt P07355+P60903); assay: Inhibition of human ANXA2/S100A10 interaction in MDA-MB-231 cells at 5 to 10 uM measured after 48 hrs by immunocytochemistry assay; assay type: cell-based; conditions: dose 5-10 µM
4T1 [3] = assay: Inhibition of cell stemness in mouse 4T1 cells assessed as reduction in size of tumor spheres incubated in tumorsphere medium for 4 days followed by compound incubation for 96 hrs by microscopic analysis; assay type: functional, cell-based
MDA-MB-231 [4] = assay: Inhibition of cell stemness in human MDA-MB-231 cells assessed as reduction in size of tumor spheres incubated in tumorsphere medium for 4 days followed by compound incubation for 96 hrs by microscopic analysis; assay type: functional, cell-based
4T1 [5] = assay: Antitumor activity against mouse 4T1 cells assessed as reduction in cell invasion at 2.5 to 5 uM measured after 24 hrs by crystal violet staining based transwell assay; assay type: functional; conditions: dose 2.5-5 µM
MDA-MB-231 [6] = assay: Antimetastatic activity against human MDA-MB-231 cells assessed as accumulation of E-cadherin in cell cytoplasm at 5 to 10 uM measured after 48 hrs by Western blot analysis; assay type: functional, cell-based; conditions: dose 5-10 µM
4T1 [7] = assay: Inhibition of colony formation in mouse 4T1 cells at 2.5 to 5 uM incubated for 7 days by crystal violet staining based assay; assay type: functional, cell-based; conditions: dose 2.5-5 µM, time 7.0 day
4T1 [8] = assay: Inhibition of cell migration in mouse 4T1 cells at 5 to 10 uM incubated for 24 hrs by wound healing assay; assay type: functional, cell-based; conditions: dose 5-10 µM
MDA-MB-231 [9] = assay: Antitumor activity against human MDA-MB-231 cells assessed as reduction in cell invasion at 2.5 to 5 uM measured after 24 hrs by crystal violet staining based transwell assay; assay type: functional; conditions: dose 2.5-5 µM
MDA-MB-231 [10] = assay: Inhibition of cell stemness in human MDA-MB-231 cells assessed as reduction in tumor spheres count at 10 to 20 uM incubated in tumorsphere medium for 4 days followed by compound incubation for 96 hrs by microscopic analysis; assay type: functional, cell-based; conditions: dose 10-20 µM
MDA-MB-231 [11] = assay: Inhibition of colony formation in human MDA-MB-231 cells at 2.5 to 5 uM incubated for 7 days by crystal violet staining based assay; assay type: functional, cell-based; conditions: dose 2.5-5 µM, time 7.0 day
MDA-MB-231 [12] = assay: Antiproliferative activity against human MDA-MB-231 cells assessed as reduction in cell viability after 48 hrs by MTT assay; assay type: functional, cell-based; conditions: MDA-MB-231, 48 h
MDA-MB-231 [13] = assay: Antimetastatic activity against human MDA-MB-231 cells assessed as decrease in E-cadherin expression in cell membrane at 5 to 10 uM measured after 48 hrs by Western blot analysis; assay type: functional, cell-based; conditions: dose 5-10 µM
MDA-MB-231 [14] = assay: Inhibition of cell migration in human MDA-MB-231 cells at 2.5 to 5 uM incubated for 36 hrs by wound healing assay; assay type: functional, cell-based; conditions: dose 2.5-5 µM
[15] = target: T1, Annexin A2/S100-A10 (Homo sapiens); assay: Inhibition of human ANXA2/S100A10 interaction in MDA-MB-231 cells pretreated with compound for 48 hrs by immunoprecipitation based Western blot analysis; assay type: cell-based
4T1 [16] = assay: Inhibition of cell stemness in mouse 4T1 cells assessed as reduction in tumor spheres count at 10 to 20 uM incubated in tumorsphere medium for 4 days followed by compound incubation for 96 hrs by microscopic analysis; assay type: functional, cell-based; conditions: dose 10-20 µM
4T1 [17] = assay: Antitumor activity against mouse 4T1 cells expressing luciferase gene implanted in BALB/c lung metastatic mouse model assessed as decrease in lung metastatic burden at 100 mg/kg, po administered once a day for 20 days by H&E staining based assay; assay type: functional, organism-based; conditions: time 20.0 day
4T1 [18] = assay: Antimetastatic activity against mouse 4T1 cells expressing luciferase gene implanted in BALB/c lung metastatic mouse model assessed as down regulation of ANXA2 expression in liver tissue at 100 mg/kg, po administered once a day for 20 days; assay type: functional, organism-based; conditions: time 20.0 day
[19] = Toxicity in BALB/c mouse xenografted with mouse 4T1 assessed as effect on body weight at 100 mg/kg, po administered once a day for 36 days; assay type: organism-based; conditions: in vivo, 864 h, time 36 day
4T1 [20] = assay: Antitumor activity against mouse 4T1 cells xenografted in BALB/c mouse assessed as decrease in liver metastasis at 100 mg/kg, po administered once a day for 36 days by H&E staining based assay; assay type: functional, organism-based; conditions: time 36.0 day
4T1 [21] = assay: Antimetastatic activity against mouse 4T1 cells expressing luciferase gene implanted in BALB/c lung metastatic mouse model assessed as down regulation of E-cadherin expression in liver tissue at 100 mg/kg, po administered once a day for 20 days; assay type: functional, organism-based; conditions: time 20.0 day
4T1 [22] = assay: Antitumor activity against mouse 4T1 cells xenografted in BALB/c mouse assessed as tumor growth inhibition at 100 mg/kg, po administered once a day for 36 days; assay type: functional; conditions: 4T1, po, 864 h, time 36 day, read-out: TGI
4T1 [23] = assay: Antitumor activity against mouse 4T1 cells expressing luciferase gene implanted in BALB/c lung metastatic mouse model assessed as reduction in fluorescence at 100 mg/kg, po administered once a day for 20 days by luciferase reporter gene based bioluminescence assay; assay type: functional, organism-based; conditions: time 20.0 day
4T1 [24] = assay: Antitumor activity against mouse 4T1 cells expressing luciferase gene implanted in BALB/c lung metastatic mouse model assessed as decrease in lung metastasis at 100 mg/kg, po administered once a day for 20 days by H&E staining based assay; assay type: functional, organism-based; conditions: time 20.0 day
4T1 [25] = assay: Antitumor activity against mouse 4T1 cells xenografted in BALB/c mouse assessed as decrease in lung metastasis at 100 mg/kg, po administered once a day for 36 days by H&E staining based assay; assay type: functional, organism-based; conditions: time 36.0 day
4T1 [26] = assay: Antitumor activity against mouse 4T1 cells expressing luciferase gene implanted in BALB/c lung metastatic mouse model assessed as reduction in fluorescence at 10 mg/kg, ip administered twice a week for 20 days by luciferase reporter gene based bioluminescence assay; assay type: functional, organism-based; conditions: time 20.0 day

T1 sequence (P07355 2-339 limits assumed): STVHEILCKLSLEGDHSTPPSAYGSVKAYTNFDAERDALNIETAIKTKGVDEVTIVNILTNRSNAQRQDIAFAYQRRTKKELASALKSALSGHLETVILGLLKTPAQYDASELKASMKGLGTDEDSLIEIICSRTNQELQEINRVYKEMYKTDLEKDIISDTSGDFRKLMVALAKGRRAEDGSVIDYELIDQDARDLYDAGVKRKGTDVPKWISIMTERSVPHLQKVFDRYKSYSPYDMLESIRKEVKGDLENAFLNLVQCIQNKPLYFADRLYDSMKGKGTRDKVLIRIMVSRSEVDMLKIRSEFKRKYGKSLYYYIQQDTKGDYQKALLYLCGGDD
T1 sequence (P60903 whole entry partner): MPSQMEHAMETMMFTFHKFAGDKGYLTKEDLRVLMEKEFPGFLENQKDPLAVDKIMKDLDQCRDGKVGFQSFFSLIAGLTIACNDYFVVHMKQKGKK

SMILES: C=C1C(=O)O[C@@H]2C[C@@]3(C)CCC[C@H](C)[C@@]34O[C@H]4[C@H]12
- IC50 (4T1 [1]): 18.4 µM
- inhibition [2]: Active
- inhibition (4T1 [3]): Dose-Dependent Effect
- inhibition (MDA-MB-231 [4]): Dose-Dependent Effect
- Activity (4T1 [5]): Active
- Activity (MDA-MB-231 [6]): Active
- inhibition (4T1 [7]): Active
- inhibition (4T1 [8]): Active
- Activity (MDA-MB-231 [9]): Active
- inhibition (MDA-MB-231 [10]): Active
- inhibition (MDA-MB-231 [11]): Active
- IC50 (MDA-MB-231 [12]): 16 µM
- Activity (MDA-MB-231 [13]): Active
- inhibition (MDA-MB-231 [14]): Active
- inhibition [15]: Active
- inhibition (4T1 [16]): Active

SMILES: C[C@H]1CCC[C@]2(C)C[C@H]3OC(=O)[C@@H](CN(C)C)[C@H]3[C@@H]3O[C@@]132.O=C(O)/C=C/C(=O)O
- Activity (4T1 [17]): Active
- Activity (4T1 [18]): Active
- Activity [19]: Non-Toxic
- Activity (4T1 [20]): Active
- Activity (4T1 [21]): Active
- inhibition in vivo at 100 mg/kg (4T1 [22]): 30%
- Activity (4T1 [23]): Active
- Activity (4T1 [24]): Active
- Activity (4T1 [25]): Active

SMILES: CC(=O)O[C@H]1C(=O)[C@@]2(C)[C@H]([C@H](OC(=O)c3ccccc3)[C@]3(O)C[C@H](OC(=O)[C@H](O)[C@@H](NC(=O)c4ccccc4)c4ccccc4)C(C)=C1C3(C)C)[C@]1(OC(C)=O)CO[C@@H]1C[C@@H]2O
- Activity (4T1 [26]): inactive
